Experimental data taken from patent publication US9932340B2, “Substituted indoles” (AbbVie Inc., priority 2014, dated 2018).

target: SUV420H1 enzyme (Homo sapiens, UniProt Q4FZB7); assay: TR-FRET SAH SUV420H1 enzyme inhibition assay; format: biochemical; conditions: Histone Peptide H4(8-30)me1 and SAM, overnight at room temp, TR-FRET detection of SAH, read-out: TR-FRET SAH_SUV420H1 IC50
Experimental: Test compounds were dispensed by a Labcyte Echo in 384-well low volume assay plates with 3-fold serial dilutions from 50 μM to 0.00075 μM. 5 μL of SUV420H1 enzyme (Abbvie) at 90 nM was added to all wells except the no enzyme control wells, and incubated for 30 minutes at room temp before 5 μL of Histone Peptide H4(8-30)me1 (Anaspec) at 5 nM and SAM at 4 nM was added to all wells. The plates were incubated in a humidified chamber overnight at room temp and then 10 μL of the detection reagent that contained RIPA buffer (50 mM Tris-HCl, pH 8.0, 150 mM sodium chloride, 1.0% Igepal CA-630 (NP-40), 0.5% sodium deoxycholate and 0.1% sodium dodecyl sulfate) (Sigma) with 2 nM of Terbium chelate anti S-adenosyl-L-homocysteine (SAH) (Abbvie) antibody and Oregon Green labeled SAH at 4 nM was added. The plates were further incubated for 4 hours at room temperature. The plates were read in a Perkin Elmer Envision using a TR-FRET protocol with Excitation set at 335 nm and Emission at 520 and 495 nm. To generate dose response curves the data is normalized to percent inhibition by setting the average of the plus and minus enzyme control wells to 0% and 100% inhibition respectively. The IC50 values for the compounds are generated by fitting the normalized data with Accelrys Assay Explorer 3.3 to a sigmoidal curve model using […] regression, Y=(100*x^n)/(K^n+x^n), where Y is the measured response, x is the compound concentration, n is the Hill Slope and K is the IC50 and the lower and higher asymptotes are constrained to 0 and 100 respectively.

Sequence of SUV420H1 enzyme (Q4FZB7 whole entry): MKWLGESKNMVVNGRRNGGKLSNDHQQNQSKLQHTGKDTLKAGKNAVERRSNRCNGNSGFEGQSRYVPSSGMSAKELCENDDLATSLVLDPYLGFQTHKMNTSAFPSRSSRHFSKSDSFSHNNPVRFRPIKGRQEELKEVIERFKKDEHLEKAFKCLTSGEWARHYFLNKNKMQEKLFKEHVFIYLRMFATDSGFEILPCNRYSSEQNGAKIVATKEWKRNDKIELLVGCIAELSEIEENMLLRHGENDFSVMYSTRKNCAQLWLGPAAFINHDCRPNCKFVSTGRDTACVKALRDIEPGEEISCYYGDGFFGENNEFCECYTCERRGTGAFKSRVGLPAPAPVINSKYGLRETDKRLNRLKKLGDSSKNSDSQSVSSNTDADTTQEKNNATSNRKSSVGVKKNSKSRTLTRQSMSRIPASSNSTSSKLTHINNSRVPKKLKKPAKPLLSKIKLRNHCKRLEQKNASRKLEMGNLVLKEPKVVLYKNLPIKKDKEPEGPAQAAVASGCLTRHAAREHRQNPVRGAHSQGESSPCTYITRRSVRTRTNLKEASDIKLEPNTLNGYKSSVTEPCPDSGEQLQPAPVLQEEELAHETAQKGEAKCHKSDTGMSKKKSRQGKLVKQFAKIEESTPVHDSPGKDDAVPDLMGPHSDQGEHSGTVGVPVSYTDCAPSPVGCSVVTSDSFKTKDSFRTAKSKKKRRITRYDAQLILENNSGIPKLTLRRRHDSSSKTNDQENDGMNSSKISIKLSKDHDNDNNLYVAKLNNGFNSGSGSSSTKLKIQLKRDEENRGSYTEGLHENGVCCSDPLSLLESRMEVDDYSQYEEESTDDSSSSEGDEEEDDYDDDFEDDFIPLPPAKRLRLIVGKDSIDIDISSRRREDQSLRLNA

First: CS(=O)(=O)Nc1ccc(-c2cc(Cn3cnc4c(N)ncnc43)c3[nH]c(CN)cc3c2)cc1 [Example 41, N-(4-{2-(aminomethyl)-7-[(6-amino-9H-purin-9-yl)methyl]-1H-indol-5-yl}phenyl)methanesulfonamide]
Second: CS(=O)(=O)Nc1cccc(-c2cc(Cn3cnc4c(N)ncnc43)c3[nH]c(CN)cc3c2)c1 [Example 42, N-(3-{2-(aminomethyl)-7-[(6-amino-9H-purin-9-yl)methyl]-1H-indol-5-yl}phenyl)methanesulfonamide]
The IC50 of the first is 1.9-fold lower: 236 nM for the first, 450 nM for the second. The first is the more potent here.

Compared with `COC(=O)c1ccc(-c2cc(Cn3cnc4c(N)ncnc43)c3[nH]c(CN)cc3c2)cc1` [Example 44, methyl 4-{2-(aminomethyl)-7-[(6-amino-9H-purin-9-yl)methyl]-1H-indol-5-yl}benzoate], `CN(C)C(=O)c1ccc(-c2cc(Cn3cnc4c(N)ncnc43)c3[nH]c(CN)cc3c2)cc1` [Example 47, 4-{2-(aminomethyl)-7-[(6-amino-9H-purin-9-yl)methyl]-1H-indol-5-yl}-N,N-dimethylbenzamide] is 1.6-fold lower in IC50: 560 nM for the first, 354 nM for the second. The second is the more potent here.

First: N#CCc1ccc(-c2cc(Cn3cnc4c(N)ncnc43)c3[nH]c(CN)cc3c2)cc1 [Example 45, (4-{2-(aminomethyl)-7-[(6-amino-9H-purin-9-yl)methyl]-1H-indol-5-yl}phenyl)acetonitrile]
Second: CN1CCN(Cc2ccc(-c3cc(Cn4cnc5c(N)ncnc54)c4[nH]c(CN)cc4c3)cc2)CC1 [Example 54, 9-{[2-(aminomethyl)-5-{4-[(4-methylpiperazin-1-yl)methyl]phenyl}-1H-indol-7-yl]methyl}-9H-purin-6-amine]
The IC50 of the first is 3.3-fold lower: 356 nM for the first, 1180 nM for the second.

Compared with `CCNC(=O)c1cccc(-c2cc(Cn3cnc4c(N)ncnc43)c3[nH]c(CN)cc3c2)c1` [Example 46, 3-{2-(aminomethyl)-7-[(6-amino-9H-purin-9-yl)methyl]-1H-indol-5-yl}-N-ethylbenzamide], `CN(C)C(=O)c1cccc(-c2cc(Cn3cnc4c(N)ncnc43)c3[nH]c(CN)cc3c2)c1` [Example 48, 3-{2-(aminomethyl)-7-[(6-amino-9H-purin-9-yl)methyl]-1H-indol-5-yl}-N,N-dimethylbenzamide] is 2.5-fold higher in IC50: 541 nM for the first, 1330 nM for the second.

`CN(C)CCNC(=O)c1ccc(-c2cc(Cn3cnc4c(N)ncnc43)c3[nH]c(CN)cc3c2)cc1` [Example 49, 4-{2-(aminomethyl)-7-[(6-amino-9H-purin-9-yl)methyl]-1H-indol-5-yl}-N-[2-(dimethylamino)ethyl]benzamide] and `NCc1cc2cc(-c3ccc(C(=O)NC4CC4)cc3)cc(Cn3cnc4c(N)ncnc43)c2[nH]1` [Example 50, 4-{2-(aminomethyl)-7-[(6-amino-9H-purin-9-yl)methyl]-1H-indol-5-yl}-N-cyclopropylbenzamide] are within 1.5-fold of each other in IC50: 193 nM for the first, 223 nM for the second.

Compared with `NCc1cc2cc(-c3cccc(C(=O)NC4CC4)c3)cc(Cn3cnc4c(N)ncnc43)c2[nH]1` [Example 51, 3-{2-(aminomethyl)-7-[(6-amino-9H-purin-9-yl)methyl]-1H-indol-5-yl}-N-cyclopropylbenzamide], `NCc1cc2cc(-c3cccc(C(=O)N4CCOCC4)c3)cc(Cn3cnc4c(N)ncnc43)c2[nH]1` [Example 53, (3-{2-(aminomethyl)-7-[(6-amino-9H-purin-9-yl)methyl]-1H-indol-5-yl}phenyl)(morpholin-4-yl)methanone] is 2-fold higher in IC50: 294 nM for the first, 590 nM for the second.

`NCc1cc2cc(-c3cccc(N4CCOCC4)c3)cc(Cn3cnc4c(N)ncnc43)c2[nH]1` [Example 52, 9-({2-(aminomethyl)-5-[3-(morpholin-4-yl)phenyl]-1H-indol-7-yl}methyl)-9H-purin-6-amine] and `CN1CCN(Cc2cccc(-c3cc(Cn4cnc5c(N)ncnc54)c4[nH]c(CN)cc4c3)c2)CC1` [Example 55, 9-{[2-(aminomethyl)-5-{3-[(4-methylpiperazin-1-yl)methyl]phenyl}-1H-indol-7-yl]methyl}-9H-purin-6-amine] are within 1.5-fold of each other in IC50: 244 nM for the first, 293 nM for the second.

First: CN1CCN(C(=O)c2ccc(-c3cc(Cn4cnc5c(N)ncnc54)c4[nH]c(CN)cc4c3)cc2)CC1 [Example 56, (4-{2-(aminomethyl)-7-[(6-amino-9H-purin-9-yl)methyl]-1H-indol-5-yl}phenyl)(4-methylpiperazin-1-yl)methanone]
Second: NCc1cc2cc(-c3ccc4c(c3)CCO4)cc(Cn3cnc4c(N)ncnc43)c2[nH]1 [Example 57, 9-{[2-(aminomethyl)-5-(2,3-dihydro-1-benzofuran-5-yl)-1H-indol-7-yl]methyl}-9H-purin-6-amine]
The IC50 of the first is 1.9-fold lower: 240 nM for the first, 457 nM for the second.

`NCc1cc2ccc(Cl)c(Cn3cnc4c(N)ncnc43)c2[nH]1` [Example 58, 9-{[2-(aminomethyl)-6-chloro-1H-indol-7-yl]methyl}-9H-purin-6-amine] and `C=Cc1ccc2cc(CN)[nH]c2c1Cn1cnc2c(N)ncnc21` [Example 59, 9-{[2-(aminomethyl)-6-ethenyl-1H-indol-7-yl]methyl}-9H-purin-6-amine] are within 1.5-fold of each other in IC50: 7880 nM for the first, 7510 nM for the second.

Compared with `C=C(C)c1ccc2cc(CN)[nH]c2c1Cn1cnc2c(N)ncnc21` [Example 60, 9-{[2-(aminomethyl)-6-(prop-1-en-2-yl)-1H-indol-7-yl]methyl}-9H-purin-6-amine], `C=C(C)c1ccc(Cn2cnc3c(N)ncnc32)c2[nH]c(CN)cc12` [Example 65, 9-{[2-(aminomethyl)-4-(prop-1-en-2-yl)-1H-indol-7-yl]methyl}-9H-purin-6-amine] is 7.6-fold lower in IC50: 38400 nM for the first, 5080 nM for the second. The second is the more potent here.

Going from `NCc1cc2ccc(-c3ccccc3)c(Cn3cnc4c(N)ncnc43)c2[nH]1` [Example 61, 9-{[2-(aminomethyl)-6-phenyl-1H-indol-7-yl]methyl}-9H-purin-6-amine] to `NCc1cc2c(-c3ccccc3)ccc(Cn3cnc4c(N)ncnc43)c2[nH]1` [Example 70, 9-{[2-(aminomethyl)-4-phenyl-1H-indol-7-yl]methyl}-9H-purin-6-amine], the IC50 falls from 20300 nM to 1000 nM (20-fold).

Compared with `NCc1cc2c(Cl)ccc(Cn3cnc4c(N)ncnc43)c2[nH]1` [Example 62, 9-{[2-(aminomethyl)-4-chloro-1H-indol-7-yl]methyl}-9H-purin-6-amine], `C=Cc1ccc(Cn2cnc3c(N)ncnc32)c2[nH]c(CN)cc12` [Example 63, 9-{[2-(aminomethyl)-4-ethenyl-1H-indol-7-yl]methyl}-9H-purin-6-amine] is 3.6-fold higher in IC50: 1120 nM for the first, 4030 nM for the second. The first is the more potent here.

`CCc1ccc(Cn2cnc3c(N)ncnc32)c2[nH]c(CN)cc12` [Example 64, 9-{[2-(aminomethyl)-4-ethyl-1H-indol-7-yl]methyl}-9H-purin-6-amine] and `CC(C)c1ccc(Cn2cnc3c(N)ncnc32)c2[nH]c(CN)cc12` [Example 66, 9-{[2-(aminomethyl)-4-(propan-2-yl)-1H-indol-7-yl]methyl}-9H-purin-6-amine] are within 1.5-fold of each other in IC50: 3080 nM for the first, 4290 nM for the second.

Compared with `NCc1cc2c(C3=CCCC3)ccc(Cn3cnc4c(N)ncnc43)c2[nH]1` [Example 67, 9-{[2-(aminomethyl)-4-(cyclopent-1-en-1-yl)-1H-indol-7-yl]methyl}-9H-purin-6-amine], `Cn1cc(-c2ccc(Cn3cnc4c(N)ncnc43)c3[nH]c(CN)cc23)cn1` [Example 68, 9-{[2-(aminomethyl)-4-(1-methyl-1H-pyrazol-4-yl)-1H-indol-7-yl]methyl}-9H-purin-6-amine] is 4.9-fold higher in IC50: 200 nM for the first, 972 nM for the second. The first is the more potent here.

Compared with `NCc1cc2c(-c3cccnc3)ccc(Cn3cnc4c(N)ncnc43)c2[nH]1` [Example 69, 9-{[2-(aminomethyl)-4-(pyridin-3-yl)-1H-indol-7-yl]methyl}-9H-purin-6-amine], `Cc1cccc(-c2ccc(Cn3cnc4c(N)ncnc43)c3[nH]c(CN)cc23)c1` [Example 76, 9-{[2-(aminomethyl)-4-(3-methylphenyl)-1H-indol-7-yl]methyl}-9H-purin-6-amine] is 2-fold higher in IC50: 663 nM for the first, 1330 nM for the second. The first is the more potent here.

Going from `NCc1cc2c(-c3ccccc3Cl)ccc(Cn3cnc4c(N)ncnc43)c2[nH]1` [Example 72, 9-{[2-(aminomethyl)-4-(2-chlorophenyl)-1H-indol-7-yl]methyl}-9H-purin-6-amine] to `NCc1cc2c(-c3ccccc3F)ccc(Cn3cnc4c(N)ncnc43)c2[nH]1` [Example 74, 9-{[2-(aminomethyl)-4-(2-fluorophenyl)-1H-indol-7-yl]methyl}-9H-purin-6-amine], the IC50 falls from 1810 nM to 1180 nM (1.5-fold). The second is the more potent here.

`NCc1cc2c(-c3ccc(F)cc3)ccc(Cn3cnc4c(N)ncnc43)c2[nH]1` [Example 73, 9-{[2-(aminomethyl)-4-(4-fluorophenyl)-1H-indol-7-yl]methyl}-9H-purin-6-amine] and `Cc1ccc(-c2ccc(Cn3cnc4c(N)ncnc43)c3[nH]c(CN)cc23)cc1` [Example 75, 9-{[2-(aminomethyl)-4-(4-methylphenyl)-1H-indol-7-yl]methyl}-9H-purin-6-amine] are within 1.5-fold of each other in IC50: 722 nM for the first, 890 nM for the second.

Going from `Cc1ccccc1-c1ccc(Cn2cnc3c(N)ncnc32)c2[nH]c(CN)cc12` [Example 77, 9-{[2-(aminomethyl)-4-(2-methylphenyl)-1H-indol-7-yl]methyl}-9H-purin-6-amine] to `COc1ccc(-c2ccc(Cn3cnc4c(N)ncnc43)c3[nH]c(CN)cc23)cc1` [Example 78, 9-{[2-(aminomethyl)-4-(4-methoxyphenyl)-1H-indol-7-yl]methyl}-9H-purin-6-amine], the IC50 falls from 2630 nM to 632 nM (4.2-fold). The second is the more potent here.
